Results reported in patent EP4782431A1 (Suzhou Merna Therapeutics Co. Ltd, priority 2023, dated 2025).

What was measured:
[1] = system: THP-1 cells; assay: m6A methylation level of THP-1 cells (LC-MS); type: cell-based; conditions: 24 hours
Method: 1*10^8 THP-1 cells were seeded in culture dishes, into which 4 nM and 400 nM compound of formula (I), 4 nM and 4 µM nicotinamide, and 5 µM m6A methyltransferase inhibitor UZH2 were added, respectively. The cells were cultured in an incubator containing 5% CO2 at 37°C for 24 hours. After discarding culture media and washing with PBS, the cells were centrifuged, and the supernatant was discarded. 400 µL of an RLT cell lysis buffer was added, and the cells were stored at -80°C. A portion of samples were selected, into which 400 µL of 70% ethanol was added and evenly stirred. 700 µL of a sample was transferred to an RNeasy centrifugation column and centrifuged for 15 seconds (8,000 g, 25°C). Then, 700 µL of an RW1 buffer solution was added and centrifuged for 15 seconds (8,000 g, 25°C), followed by the addition of 500 µL of an RPE buffer solution and centrifugation for 16 seconds (8,000 g, 25°C). The above steps were repeated twice, followed by centrifugation for 2 minutes to completely remove the eluent. 30 µL of nuclease-free water was added to a chromatographic column, and the cells were incubated for 5 minutes and then centrifuged for 2 minutes (12,000 g, 25°C). The steps were repeated 3 times. 2 µL of an RNA sample was selected and dissolved in 98 µL of a 10 mM Tris buffer solution, and the absorbance at 260 nm was measured using a Nanodrop to determine the RNA concentration.
50 µg of total RNA was selected and dissolved in 100 µL of nuclease-free water. Oligo (dT) magnetic beads were resuspended, 50 µL of the magnetic beads were transferred to a 1.5 mL test tube, 500 µL of a binding buffer solution was added, the mixture was allowed to stand, and the supernatant was removed. 100 µL of an RNA sample was added to 200 µL of a magnetic bead suspension for mixing, the mixture was stirred and incubated in a Thermomixer at 25°C for 5 minutes, the supernatant was discarded, and then 200 µL of a washing buffer solution was added. The steps were repeated 2 times, and then centrifugation was performed for 10 seconds (2,000 g, 25°C). 50 µL of an elution buffer solution was added and evenly mixed, the mixture was heated to 75°C, the supernatant was transferred to a new 1.5 mL test tube and purified using an RNA Clean & Concentrator kit, and the RNA concentration was determined.
20 µL (approximately 200 ng) of an mRNA sample and 20 µL of a Nuclease P1 digestion premix (including 0.5 µL of 2 unit/µL Nuclease P1, 0.4 µL of 5 M NaCl, 2 µL of 0.1 M ZnCl2, and 17.1 µL of PCR-grade water) were added into each test tube, and the mixture was stirred and incubated in a Thermomixer at 37°C for 2 hours. […] 20 µL of the supernatant was collected, an m6A methylation fragment was analyzed by LC-MS, and the m6A inhibition rate was calculated. […]

[2] = system: chemotherapeutic drug-induced mouse model with hand-foot syndrome; assay: chemotherapeutic drug-induced mouse model with hand-foot syndrome; type: in vivo, ICR mice; conditions: for infiltration of inflammatory cells / thickening of the epidermal layer and the stratum corneum in the skin tissues / swelling of the toes caused by the modeling drugs: capecitabine and docetaxel models; for infiltration of inflammatory cells / thickening of the epidermal layer and the stratum corneum in the skin tissues / expression level of cytokine IL-8 in the skin tissues of the hind limb toes of the mice / expression level of cytokine IL-6 in the skin tissues of the hind limb toes of the mice: 3% ointment topical or nicotinamide 100 mg/kg oral; for swelling of the toes caused by the modeling drugs: compound of formula (I) 3% ointment topical or nicotinamide 100 mg/kg oral, once daily 16 days; for expression level of cytokine IL-8 in the skin tissues of the hind limb toes of the mice: capecitabine model; for expression level of cytokine IL-6 in the skin tissues of the hind limb toes of the mice: docetaxel model
Description: After adaptive feeding for 7 days, SPF-grade ICR mice (male, 5-6 weeks old, with a body weight of approximately 35 g) were randomly divided into groups, including a blank control group (6 mice), a capecitabine modeling group (6 mice), a docetaxel modeling group (6 mice), a capecitabine + compound of formula (I) group (6 mice), a docetaxel + compound of formula (I) group (6 mice), a capecitabine + nicotinamide group (6 mice), and a docetaxel + nicotinamide group (6 mice). The groups were respectively administered corresponding modeling drugs by oral gavage (capecitabine at 200 mg/kg and docetaxel at 25 mg/kg) once daily; and the blank control group was administered an equivalent volume of normal saline. After administration with the chemotherapeutic drugs for 2 weeks, the ointments containing the compound of formula (I) (at a compound content of 3%) used in Example 10 were respectively applied topically in the groups, or nicotinamide was orally administered (100 mg/kg) once daily continuously for 16 days.
Measurement of the degree of swelling of toes: The degree of swelling of hind limb toes of the mice was measured using a toe swelling tester (KW-7C, Nanjing Calvin Biotechnology Co., Ltd.) before administration with the modeling drugs, after administration with the modeling drugs for 2 weeks, and before sacrifice, respectively. Before measurement, ankle joints of hind feet of the mice were marked at same positions before administration, after administration for 2 weeks, and before sacrifice. During measurement, water was properly located at the same level as the marked positions, and numerical values were recorded after becoming stable.
Pathological staining of skin tissues: Skin tissue samples were selected from hind limb toes of the mice and placed in 4% paraformaldehyde for fixation at room temperature for 4 hours. Then, the tissues were taken out and rinsed with running water for several hours. The samples were subjected to dehydration treatment with 70%, 80%, and 90% ethanol solutions, followed by treatment with a mixed solution of equal amounts of absolute alcohol and xylene for 15 minutes, and then permeabilized twice with a xylene solution for 15 minutes each time until the samples became transparent. The samples were placed in a mixture of half xylene and half paraffin for soaking for 15 minutes, and then, paraffin I and paraffin II were added for wax penetration for one hour, respectively. After embedding with paraffin, the samples were sectioned, baked, dewaxed, and hydrated. Then, the hydrated sections were placed in a hematoxylin solution (ZSGB-BIO, article No. 23041001) for staining for 3 minutes, and a differentiation solution of hydrochloric acid in ethanol was added for differentiation for 15 seconds. After rinsing with water, a Scott bluing solution (Servicebio, article No. 20230801) was added for bluing for 15 seconds. After rinsing with running water, the sections were stained with an eosin solution (Solarbio, article No. 33535) for 3 minutes, rinsed with running water, dehydrated, permeabilized, sealed, and inspected under a microscope.
Immunohistochemical staining: After baking, dewaxing, and hydration, paraffin sections of skin tissues of hind limb toes of the mice were subjected to antigen retrieval using a 0.2 M citric acid buffer solution (containing 1.534 g of citric acid, 3.1 g of sodium citrate, and 100 mL of distilled water, pH 4.7). Endogenous […] was removed using 3% hydrogen peroxide (Shandong Annjet High-Tech Disinfection Technology Co., Ltd., article No. 20290902), and the sections were incubated at room temperature for 10 minutes and then fully rinsed with a PBS buffer solution (containing 8 g of NaCl, 0.2 g of KCl, 1.44 g of Na2HPO4, and 1 M HCl, pH 7.4). The sections were permeabilized with 0.5% Triton-X-100 (AmyJet Scientific, article No. A-CSH436-100 mL), respectively permeabilized with mouse anti-IL-1β and rabbit IL-8 for 10 minutes, and not permeabilized with rabbit anti-IL-6. […]

Row | Compound | m6A methylation level of mRNA of the cells ([1]; 4 nM and 400 nM, concentration-dependent) | m6A inhibition activity ([1]; 400 nM) | infiltration of inflammatory cells [2] | thickening of the epidermal layer and the stratum corneum in the skin tissues [2] | swelling of the toes caused by the modeling drugs [2] | expression level of cytokine IL-8 in the skin tissues of the hind limb toes of the mice [2] | expression level of cytokine IL-6 in the skin tissues of the hind limb toes of the mice [2] | inhibitory effect on the m6A methylation level of mRNA of the cells ([1]; high concentration (4 µM)) | inhibitory effect on the m6A methylation level of mRNA of the cells ([1]; low concentration (4 nM))
1 | NC(=O)[C@H]1CCCc2c1[nH]c1ccc(Cl)cc21 [Compound of formula (I), (S)-6-chloro-2,3,4,9-tetrahydro-1H-carbazole-carboxamide] | significantly inhibit | comparable to that of the m6A methyltransferase inhibitor UZH2 at a concentration of 5 µM | no infiltration of inflammatory cells observed | effectively alleviate | significantly alleviate | significantly decrease | significantly decrease | – | –
2 | NC(=O)c1cccnc1 [Nicotinamide, nicotinamide] | – | – | infiltration of inflammatory cells still observed | mildly alleviated | not observed that oral administration of nicotinamide at 100 mg/kg significantly alleviated the swelling | didn't have a significant impact | didn't have a significant impact | no inhibitory effect | no inhibitory effect
